In US20200216439A1, “HETERO-1,5,6,7-TETRAHYDRO-4H-INDOL-4-ONES” (BAYER PHARMA AKTIENGESELLSCHAFT, priority 2015, published 2020):

molecular target: T1, catalytic domain of human Bub1 (amino acids 704-1085) (Homo sapiens, UniProt O43683); assay: Bub1 kinase assay (TR-FRET); type: biochemical; conditions: TR-FRET; ATP 10 μM, peptide substrate 1 μM; 60 min at 22° C.; average or median if tested more than once; read-out: Inhibition of Bub1 kinase IC50
T1 construct: catalytic domain of human Bub1 (amino acids 704-1085); His6 (N); made in house; host or cells: Hi5 insect cells
T1 sequence (O43683 704-1085): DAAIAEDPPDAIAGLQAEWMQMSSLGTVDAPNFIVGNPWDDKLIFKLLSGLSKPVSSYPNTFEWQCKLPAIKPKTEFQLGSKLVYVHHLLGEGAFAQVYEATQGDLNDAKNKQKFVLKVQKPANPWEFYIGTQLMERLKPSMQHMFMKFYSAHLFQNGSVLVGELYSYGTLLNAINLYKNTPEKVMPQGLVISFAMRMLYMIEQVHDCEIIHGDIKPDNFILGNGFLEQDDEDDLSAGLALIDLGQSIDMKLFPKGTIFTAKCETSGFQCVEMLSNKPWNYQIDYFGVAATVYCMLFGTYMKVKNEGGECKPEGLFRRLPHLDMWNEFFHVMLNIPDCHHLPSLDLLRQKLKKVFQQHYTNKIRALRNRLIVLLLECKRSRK
How it was run: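 Eleven concentrations (0.1 nM–20 μM, duplicate) fitted by 4-parameter logistic for IC50. Read-out: EDTA-stopped TR-FRET (665/620 nm) detecting anti-phosphoserine binding to biotin-peptide (1 μM). Reaction used 10 μM ATP, 60 min at 22 °C, after 15 min compound preincubation with His-tagged human Bub1 704-1085.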

SMILES | IC50 [nM]
COCCOc1cnccc1-c1[nH]c2c(c1Nc1ccccc1)C(=O)CN(S(=O)(=O)N(C)C)C2 [Example 280, 2-[3-(2-Methoxyethoxy)pyridin-4-yl]-N,N-dimethyl-4-oxo-3-(phenylamino)-1,4,5,7-tetrahydro-6H-pyrrolo[2,3-c]pyridine-6-sulfonamide] | 6
CN(C)S(=O)(=O)N1CC(=O)c2c([nH]c(-c3ccncc3OCC(F)F)c2Nc2ccccc2)C1 [Example 281, 3-Anilino-2-[3-(2,2-difluoroethoxy)pyridin-4-yl]-N,N-dimethyl-4-oxo-1,4,5,7-tetrahydro-6H-pyrrolo[2,3-c]pyridine-6-sulfonamide] | 10
CN(C)S(=O)(=O)N1CC(=O)c2c([nH]c(-c3ccncc3OCC3CC3)c2Nc2ccccc2)C1 [Example 282, 2-[3-(Cyclopropylmethoxy)pyridin-4-yl]-N,N-dimethyl-4-oxo-3-(phenylamino)-1 4,5,7-tetrahydro-6H-pyrrolo[2,3-c]pyridine-6-sulfonamide] | 12
COc1ccc(C(=O)Nc2cc(-c3c(Nc4ccccc4)c4c(n3C)CN(S(=O)(=O)N(C)C)CC4=O)ccn2)cc1F [Example 290, N-4-[6-(Dimethylsulfamoyl)-1-methyl-4-oxo-3-(phenylamino)-4,5,6,7-tetrahydro-1H-pyrrolo[2,3-c]pyridin-2-yl]pyridin-2-yl-3-fluoro-4-methoxybenzamide] | 73
Cc1ccc(Nc2c(-c3ccnc(N)c3)[nH]c3c2C(=O)CN(C(=O)OC(C)(C)C)C3)cc1 [Example 294, tert-butyl 2-(2-Aminopyridin-4-yl)-3-[(4-methylphenyl)amino]-4-oxo-1,4,5,7-tetrahydro-6H-pyrrolo[2,3-c]pyridine-6-carboxylate] | 499
CC(=O)Nc1cc(-c2[nH]c3c(c2Nc2ccc(C)cc2)C(=O)CN(C(=O)OC(C)(C)C)C3)ccn1 [Example 295, tert-Butyl 2-(2-acetamidopyridin-4-yl)-3-[(4-methylphenyl)amino]-4-oxo-1,4,5,7-tetrahydro-6H-pyrrolo[2,3-c]pyridine-6-carboxylate] | 363
CC(C)(C)OC(=O)N1CC(=O)c2c([nH]c(-c3ccnc(N)c3)c2Nc2ccc(F)cc2)C1 [Example 296, tert-Butyl 2-(2-aminopyridin-4-yl)-3-[(4-fluorophenyl)amino]-4-oxo-1,4,5,7-tetrahydro-6H-pyrrolo[2,3-c]pyridine-6-carboxylate] | 172
CC(=O)Nc1cc(-c2[nH]c3c(c2Nc2ccc(F)cc2)C(=O)CN(C(=O)OC(C)(C)C)C3)ccn1 [Example 297, tert-Butyl 2-(2-acetamidopyridin-4-yl)-3-[(4-fluorophenyl)amino]-4-oxo-1,4,5,7-tetrahydro-6H-pyrrolo[2,3-c]pyridine-6-carboxylate] | 55
CC(C)(C)OC(=O)N1CC(=O)c2c([nH]c(-c3ccncc3C(F)(F)F)c2Nc2ccccc2)C1 [Example 298, tert-Butyl 4-oxo-3-(phenylamino)-2-[3-(trifluoromethyl)pyridin-4-yl]-1,4,5,7-tetrahydro-6H-pyrrolo[2,3-c]pyridine-6-carboxylate] | 896
O=C1CSCc2[nH]c(-c3ccncc3C(F)(F)F)c(Nc3ccccc3)c21 [Example 299, 3-(Phenylamino)-2-[3-(trifluoromethyl)pyridin-4-yl]-1,7-dihydrothiopyrano[3,4-b]pyrrol-4(5H)-one] | 7360
O=C1COCc2[nH]c(-c3ccncc3C(F)(F)F)c(Nc3ccccc3)c21 [Example 300, 3-(Phenylamino)-2-[3-(trifluoromethyl)pyridin-4-yl]-1,7-dihydropyrano[3,4-b]pyrrol-4(5H)-one] | 8210
CC(=O)Nc1cc(-c2[nH]c3c(c2Nc2ccc(F)cc2)C(=O)CNC3)ccn1 [Example 302, N-(4-{3-[(4-Fluorophenyl)amino]-4-oxo-4,5,6,7-tetrahydro-1H-pyrrolo[2,3-c]pyridin-2-yl}pyridin-2-yl)acetamide] | 297
CC(=O)Nc1cc(-c2[nH]c3c(c2Nc2ccc(C)cc2)C(=O)CNC3)ccn1 [Example 303, N-(4-{3-[(4-Methylphenyl)amino]4-oxo-4,5,6,7-tetrahydro-1H-pyrrolo[2,3-c]pyridin-2-yl}pyridin-2-yl)acetamide] | 1150
CC(C)(C)SC(=O)N1CC(=O)c2c([nH]c(-c3ccncc3OCC(F)F)c2Nc2ccccc2)C1 [Example 304, S-tert-Butyl 3-anilino-2-[3-(2,2-difluoroethoxy)pyridin-4-yl]-4-oxo-1,4,5,7-tetrahydro-6H-pyrrolo[2,3c]pyridine-6-carbothioate] | 233

Now from value to compound:

IC50 [nM] | SMILES
38 | COc1ccc(C(=O)Nc2cc(-c3[nH]c4c(c3Nc3ccccc3)C(=O)CN(C(=O)OC(C)(C)C)C4)ccn2)cc1F [Example 283, tert-Butyl 2-2-[(3-fluoro-4-methoxybenzoyl)amino]pyridin-4-yl-4-oxo-3-(phenylamino)-1,4,5,7-tetrahydro-6H-pyrrolo[2,3-c]pyridine-6-carboxylate]
52 | COc1ccc(C(=O)Nc2cc(-c3[nH]c4c(c3Nc3ccccc3)C(=O)CNC4)ccn2)cc1F [Example 284, 3-Fluoro-4-methoxy-N-4-[4-oxo-3-(phenylamino)-4,5,6,7-tetrahydro-1H-pyrrolo[2,3-c]pyridin-2-yl]pyridin-2-ylbenzamide]
6 | COc1ccc(C(=O)Nc2cc(-c3[nH]c4c(c3Nc3ccccc3)C(=O)CN(C(C)=O)C4)ccn2)cc1F [Example 285, N-4-[6-Acetyl-4-oxo-3-(phenylamino)-4,5,6,7-tetrahydro-1H-pyrrolo[2,3-c]pyridin-2-yl]pyridin-2-yl-3-fluoro-4-methoxybenzamide]
1050 | COc1ccc(C(=O)Nc2cc(-c3c(Nc4ccccc4)c4c(n3C)CN(C(=O)OC(C)(C)C)CC4=O)ccn2)cc1F [Example 286, tert-Butyl 2-2-[(3-fluoro-4-methoxybenzoyl)amino]pyridin-4-yl-1-methyl-4-oxo-3-(phenylamino)-1,4,5,7-tetrahydro-6H-pyrrolo[2,3-c]pyridine-6-carboxylate]
2060 | COc1ccc(C(=O)Nc2cc(-c3c(Nc4ccccc4)c4c(n3C)CNCC4=O)ccn2)cc1F [Example 287, 3-Fluoro-4-methoxy-N-4-[1-methyl-4-oxo-3-(phenylamino)-4,5,6,7-tetrahydro-1H-pyrrolo[2,3-c]pyridin-2-yl]pyridin-2-ylbenzamide]
404 | COc1ccc(C(=O)Nc2cc(-c3c(Nc4ccccc4)c4c(n3C)CN(C(C)=O)CC4=O)ccn2)cc1F [Example 288, N-4-[6-Acetyl-1-methyl-4-oxo-3-(phenylamino)-4,5,6,7-tetrahydro-1H-pyrrolo[2,3-c]pyridin-2-yl]pyridin-2-yl-3-fluoro-4-methoxybenzamide]
6 | COc1ccc(C(=O)Nc2cc(-c3[nH]c4c(c3Nc3ccccc3)C(=O)CN(S(=O)(=O)N(C)C)C4)ccn2)cc1F [Example 289, N-4-[6-(Dimethylsulfamoyl)-4-oxo-3-(phenylamino)-4,5,6,7-tetrahydr-1H-pyrrolo[2,3-c]pyridin-2-yl]pyridin-2-yl-3-fluoro-4-methoxybenzamide]
6 | COc1ccc(C(=O)Nc2cc(-c3[nH]c4c(c3Nc3ccccc3)C(=O)CN(C(=O)N3CCOCC3)C4)ccn2)cc1F [Example 291, 3-Fluoro-4-methoxy-N-4-[6-(morpholin-4-ylcarbonyl)-4-oxo-3-(phenylamino)-4,5,6,7-tetrahydro-1H-pyrrolo[2,3-c]pyridin-2-yl]pyridin-2-ylbenzamide]
214 | COc1ccc(C(=O)Nc2cc(-c3[nH]c4c(c3Nc3ccccc3)C(=O)CN(C(=O)N3C[C@@H](C)O[C@@H](C)C3)C4)ccn2)cc1F [Example 292, N-4-[6-[(2R,6S)-2,6-Dimethylmorpholin-4-yl]carbonyl-4-oxo-3-(phenylamino)-4,5,6,7-tetrahydro-1H-pyrrolo[2,3-c]pyridin-2-yl]pyridin-2-yl-3-fluoro-4-methoxybenzamide]
10 | COc1ccc(C(=O)Nc2cc(-c3[nH]c4c(c3Nc3ccccc3)C(=O)CN(C(=O)N3CCCC3)C4)ccn2)cc1F [Example 293, 3-Fluoro-4-methoxy-N-4-[4-oxo-3-(phenylamino)-6-(pyrrolidin-1-ylcarbonyl)-4,5,6,7-tetrahydro-1H-pyrrolo[2,3-c]pyridin-2-yl]pyridin-2-ylbenzamide]
33 | CC(=O)Nc1cc(-c2[nH]c3c(c2Nc2ccccc2)C(=O)CN(C(=O)SC(C)(C)C)C3)ccn1 [Example 301, S-tert-butyl 2-(2-acetamidopyridin-4-yl)-3-anilino-4-oxo-1,4,5,7-tetrahydro-6H-pyrrolo[2,3-c]pyridine-6-carbothioate]
233 | COc1ccc(C(=O)Nc2cc(-c3[nH]c4c(c3Nc3ccccc3)C(=O)CN(C(=O)SC(C)(C)C)C4)ccn2)cc1F [Example 305, S-tert-butyl 3-anilino-2-{2-[(3-fluoro-4-methoxybenzoyl)amino]pyridin-4-yl}-4-oxo-1,4,5,7-tetrahydro-6H-pyrrolo[2,3-c]pyridine-6-carbothioate]
171 | COc1cc(C(=O)Nc2cc(-c3[nH]c4c(c3Nc3ccccc3)C(=O)CN(C(=O)SC(C)(C)C)C4)ccn2)ccc1F [Example 306, S-tert-butyl 3-anilino-2-{2-[(4-fluoro-3-methoxybenzoyl)amino]pyridin-4-yl}-4-oxo-1,4,5,7-tetrahydro-6H-pyrrolo[2,3-c]pyridine-6-carbothioate]
182 | CC(C)(C)SC(=O)N1CC(=O)c2c([nH]c(-c3ccnc(NC(=O)C4(F)CC4)c3)c2Nc2ccccc2)C1 [Example 307, S-tert-Butyl 3-anilino-2-{2-([(1-fluorocyclopropyl)carbonyl]amino}pyridin-4-yl)-4-oxo-1,4,5,7-tetrahydro-6H-pyrrolo[2,3-c]pyridine-6-carbothioate]
